Measurements published in the supplement of paper PMC10307832.

Tests used:
Assay in all cases: relative viability (nuclei count vs DMSO), 5 days (fraction); higher = more cells survive
201T = tested on: 201T
Outline: (§1)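 Relative viability equals treated-well nuclei counts divided by vehicle-well nuclei counts. Counts came from 4× images of lung cancer cell lines grown in 1536-well plates for 5 days after pin-tool dosing on the day after seeding. Dosing used one drug alone or a fixed anchor-drug dose plus five library-drug doses (not always all listed) in √10 steps, and values are medians of duplicate plates.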

BEN = tested on: BEN
Outline: as §1

COR-L 105 = tested on: COR-L 105
Outline: as §1

EMC-BAC-2 = tested on: EMC-BAC-2
Outline: as §1

H3255 = tested on: H3255
Outline: as §1

HARA = tested on: HARA
Outline: as §1

HCC-78 = tested on: HCC-78
Outline: as §1

HOP-62 = tested on: HOP-62
Outline: as §1

LC-2-ad = tested on: LC-2-ad
Outline: as §1

LOU-NH91 = tested on: LOU-NH91
Outline: as §1

LU99A = tested on: LU99A
Outline: as §1

LXF-289 = tested on: LXF-289
Outline: as §1

NCI-H1395 = tested on: NCI-H1395
Outline: as §1

NCI-H1993 = tested on: NCI-H1993
Outline: as §1

NCI-H2087 = tested on: NCI-H2087
Outline: as §1

NCI-H2126 = tested on: NCI-H2126
Outline: as §1

NCI-H2170 = tested on: NCI-H2170
Outline: as §1

NCI-H650 = tested on: NCI-H650
Outline: as §1

RERF-LC-KJ = tested on: RERF-LC-KJ
Outline: as §1

SK-MES-1 = tested on: SK-MES-1
Outline: as §1

SW 900 = tested on: SW 900
Outline: as §1

UMC-11 = tested on: UMC-11
Outline: as §1

## CN1CCN(CCOc2cc(OC3CCOCC3)c3c(Nc4c(Cl)ccc5c4OCO5)ncnc3c2)CC1 [Saracatinib] + CC(=O)Nc1cccc(-n2c(=O)n(C3CC3)c(=O)c3c(Nc4ccc(I)cc4F)n(C)c(=O)c(C)c32)c1 [Trametinib] (partner 0.02 µM)
201T; first compound 0.02 µM
  relative viability: 0.726
201T; first compound 0.2 µM
  relative viability: 0.685
201T; first compound 0.6325 µM
  relative viability: 0.65
201T; first compound 2 µM
  relative viability: 0.615
BEN; first compound 0.02 µM
  relative viability: 1.04
BEN; first compound 0.2 µM
  relative viability: 1.15
BEN; first compound 0.6325 µM
  relative viability: 1.17
BEN; first compound 2 µM
  relative viability: 1.13
COR-L 105; first compound 0.02 µM
  relative viability: 0.486
COR-L 105; first compound 0.2 µM
  relative viability: 0.437
COR-L 105; first compound 0.6325 µM
  relative viability: 0.37
COR-L 105; first compound 2 µM
  relative viability: 0.317
EMC-BAC-2; first compound 0.02 µM
  relative viability: 0.896
EMC-BAC-2; first compound 0.2 µM
  relative viability: 0.97
EMC-BAC-2; first compound 0.6325 µM
  relative viability: 1.11
EMC-BAC-2; first compound 2 µM
  relative viability: 0.901
H3255; first compound 0.02 µM
  relative viability: 0.636
H3255; first compound 0.2 µM
  relative viability: 0.665
H3255; first compound 0.6325 µM
  relative viability: 0.663
H3255; first compound 2 µM
  relative viability: 0.27
HARA; first compound 0.02 µM
  relative viability: 0.688
HARA; first compound 0.2 µM
  relative viability: 0.624
HARA; first compound 0.6325 µM
  relative viability: 0.836
HARA; first compound 2 µM
  relative viability: 0.344
HCC-78; first compound 0.02 µM
  relative viability: 0.569
HCC-78; first compound 0.6325 µM
  relative viability: 0.869
HCC-78; first compound 2 µM
  relative viability: 0.523
HOP-62; first compound 0.02 µM
  relative viability: 0.412
HOP-62; first compound 0.2 µM
  relative viability: 0.455
HOP-62; first compound 0.6325 µM
  relative viability: 0.441
HOP-62; first compound 2 µM
  relative viability: 0.398
LC-2-ad; first compound 0.02 µM
  relative viability: 0.9
LC-2-ad; first compound 0.2 µM
  relative viability: 0.858
LC-2-ad; first compound 0.6325 µM
  relative viability: 0.993
LC-2-ad; first compound 2 µM
  relative viability: 0.866
LOU-NH91; first compound 0.02 µM
  relative viability: 0.731
LOU-NH91; first compound 0.2 µM
  relative viability: 0.694
LOU-NH91; first compound 0.6325 µM
  relative viability: 0.758
LOU-NH91; first compound 2 µM
  relative viability: 0.636
LU99A; first compound 0.02 µM
  relative viability: 0.532
LU99A; first compound 0.2 µM
  relative viability: 0.473
LU99A; first compound 0.6325 µM
  relative viability: 0.565
LU99A; first compound 2 µM
  relative viability: 0.459
LXF-289; first compound 0.02 µM
  relative viability: 0.677
LXF-289; first compound 0.2 µM
  relative viability: 0.644
LXF-289; first compound 0.6325 µM
  relative viability: 0.655
LXF-289; first compound 2 µM
  relative viability: 0.685
NCI-H1395; first compound 0.02 µM
  relative viability: 1.07
NCI-H1395; first compound 0.2 µM
  relative viability: 0.995
NCI-H1395; first compound 0.6325 µM
  relative viability: 0.953
NCI-H1395; first compound 2 µM
  relative viability: 0.905
NCI-H1993; first compound 0.02 µM
  relative viability: 0.539
NCI-H1993; first compound 0.2 µM
  relative viability: 0.518
NCI-H1993; first compound 0.6325 µM
  relative viability: 0.528
NCI-H1993; first compound 2 µM
  relative viability: 0.5
NCI-H2087; first compound 0.02 µM
  relative viability: 0.24
NCI-H2087; first compound 0.2 µM
  relative viability: 0.142
NCI-H2087; first compound 0.6325 µM
  relative viability: 0.23
NCI-H2087; first compound 2 µM
  relative viability: 0.194
NCI-H2126; first compound 0.02 µM
  relative viability: 0.592
NCI-H2126; first compound 0.2 µM
  relative viability: 0.509
NCI-H2126; first compound 0.6325 µM
  relative viability: 0.551
NCI-H2126; first compound 2 µM
  relative viability: 0.517
NCI-H2170; first compound 0.02 µM
  relative viability: 0.917
NCI-H2170; first compound 0.2 µM
  relative viability: 0.859
NCI-H2170; first compound 0.6325 µM
  relative viability: 0.916
NCI-H2170; first compound 2 µM
  relative viability: 0.862
NCI-H650; first compound 0.02 µM
  relative viability: 0.993
NCI-H650; first compound 0.2 µM
  relative viability: 0.877
NCI-H650; first compound 0.6325 µM
  relative viability: 1.03
NCI-H650; first compound 2 µM
  relative viability: 0.92
RERF-LC-KJ; first compound 0.02 µM
  relative viability: 0.907
RERF-LC-KJ; first compound 0.2 µM
  relative viability: 0.869
RERF-LC-KJ; first compound 0.6325 µM
  relative viability: 0.916
RERF-LC-KJ; first compound 2 µM
  relative viability: 0.687
SK-MES-1; first compound 0.02 µM
  relative viability: 0.548
SK-MES-1; first compound 0.2 µM
  relative viability: 0.6
SK-MES-1; first compound 0.6325 µM
  relative viability: 0.347
SK-MES-1; first compound 2 µM
  relative viability: 0.256
SW 900; first compound 0.02 µM
  relative viability: 0.624
SW 900; first compound 0.2 µM
  relative viability: 0.443
SW 900; first compound 0.6325 µM
  relative viability: 0.647
SW 900; first compound 2 µM
  relative viability: 0.529
UMC-11; first compound 0.02 µM
  relative viability: 0.763
UMC-11; first compound 0.2 µM
  relative viability: 0.586
UMC-11; first compound 0.6325 µM
  relative viability: 0.911
UMC-11; first compound 2 µM
  relative viability: 0.641
